Measured values: ChEMBL document CHEMBL4507318, “Data for DCP probe BAY-985” (2021)

Assays:
[1] = target: 5-hydroxytryptamine receptor 2C (Homo sapiens) (UniProt P28335); details: Compound concentration 10.0 uM
[2] = target: Serine/threonine-protein kinase PknB (Mycobacterium tuberculosis) (UniProt P9WI81)
[3] = target: cGMP-dependent protein kinase 2 (Homo sapiens) (UniProt Q13237)
[4] = target: Homeodomain-interacting protein kinase 4 (Homo sapiens) (UniProt Q8NE63)
[5] = target: Cyclin-dependent kinase 2 (Homo sapiens) (UniProt P24941)
[6] = target: Mitogen-activated protein kinase 6 (Homo sapiens) (UniProt Q16659)
[7] = target: 5-hydroxytryptamine receptor 6 (Homo sapiens) (UniProt P50406); details: Compound concentration 10.0 uM
[8] = target: Activin receptor type-1B (Homo sapiens) (UniProt P36896)
[9] = target: Serine/threonine-protein kinase MAK (Homo sapiens) (UniProt P20794)
[10] = target: cAMP-dependent protein kinase catalytic subunit alpha (Homo sapiens) (UniProt P17612)
[11] = target: Epidermal growth factor receptor (Homo sapiens) (UniProt P00533)
[12] = target: Myosin-IIIa (Homo sapiens) (UniProt Q8NEV4)
Sequence of Myosin-IIIa (Homo sapiens) (Q8NEV4 whole entry, the tested form may be a part): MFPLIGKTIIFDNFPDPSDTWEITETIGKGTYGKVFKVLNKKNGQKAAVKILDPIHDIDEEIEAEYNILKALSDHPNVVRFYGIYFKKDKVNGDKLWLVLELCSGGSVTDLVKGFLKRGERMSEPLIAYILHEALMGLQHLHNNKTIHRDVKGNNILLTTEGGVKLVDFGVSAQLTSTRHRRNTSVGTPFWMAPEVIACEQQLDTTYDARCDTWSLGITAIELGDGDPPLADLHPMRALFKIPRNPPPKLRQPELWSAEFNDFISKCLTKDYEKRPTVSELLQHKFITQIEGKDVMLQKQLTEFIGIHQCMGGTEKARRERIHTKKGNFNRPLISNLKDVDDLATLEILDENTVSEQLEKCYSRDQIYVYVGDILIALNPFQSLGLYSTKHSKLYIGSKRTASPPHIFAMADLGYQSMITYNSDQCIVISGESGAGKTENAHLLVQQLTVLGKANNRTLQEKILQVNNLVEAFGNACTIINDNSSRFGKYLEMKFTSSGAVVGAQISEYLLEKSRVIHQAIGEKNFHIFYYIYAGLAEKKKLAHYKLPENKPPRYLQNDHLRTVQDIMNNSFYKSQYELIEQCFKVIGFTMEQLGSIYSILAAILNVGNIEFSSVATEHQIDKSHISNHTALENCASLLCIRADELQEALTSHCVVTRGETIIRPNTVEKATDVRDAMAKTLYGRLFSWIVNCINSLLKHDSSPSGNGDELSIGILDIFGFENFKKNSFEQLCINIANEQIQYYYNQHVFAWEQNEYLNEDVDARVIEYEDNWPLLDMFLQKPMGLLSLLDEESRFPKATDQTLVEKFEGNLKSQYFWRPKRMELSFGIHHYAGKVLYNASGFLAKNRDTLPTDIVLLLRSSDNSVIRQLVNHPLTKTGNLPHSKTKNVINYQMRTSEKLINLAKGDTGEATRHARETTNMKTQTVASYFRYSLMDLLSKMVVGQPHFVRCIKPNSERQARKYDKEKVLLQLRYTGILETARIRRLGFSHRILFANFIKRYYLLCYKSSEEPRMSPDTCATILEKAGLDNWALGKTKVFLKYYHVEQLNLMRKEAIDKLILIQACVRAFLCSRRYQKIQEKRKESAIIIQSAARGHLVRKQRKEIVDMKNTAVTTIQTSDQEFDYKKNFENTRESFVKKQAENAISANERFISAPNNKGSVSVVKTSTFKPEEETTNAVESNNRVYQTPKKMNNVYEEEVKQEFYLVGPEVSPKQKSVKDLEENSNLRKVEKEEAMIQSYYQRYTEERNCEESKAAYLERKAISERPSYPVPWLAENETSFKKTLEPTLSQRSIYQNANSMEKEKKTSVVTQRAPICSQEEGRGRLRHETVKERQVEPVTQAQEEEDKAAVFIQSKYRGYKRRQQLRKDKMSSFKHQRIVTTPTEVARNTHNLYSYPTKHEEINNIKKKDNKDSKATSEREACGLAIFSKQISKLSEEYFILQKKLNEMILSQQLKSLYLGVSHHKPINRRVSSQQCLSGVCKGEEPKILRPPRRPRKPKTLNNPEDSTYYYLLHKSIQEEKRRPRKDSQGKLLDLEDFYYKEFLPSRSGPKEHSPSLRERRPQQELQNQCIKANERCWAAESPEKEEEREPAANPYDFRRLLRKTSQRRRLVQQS

[13] = target: Discoidin domain-containing receptor 2 (Homo sapiens) (UniProt Q16832)
[14] = target: Serine/threonine-protein kinase Nek3 (Homo sapiens) (UniProt P51956)
[15] = target: Mitogen-activated protein kinase kinase kinase kinase 4 (Homo sapiens) (UniProt O95819)
[16] = target: RAC-beta serine/threonine-protein kinase (Homo sapiens) (UniProt P31751)
[17] = target: STE20/SPS1-related proline-alanine-rich protein kinase (Homo sapiens) (UniProt Q9UEW8)
[18] = target: Aurora kinase A (Homo sapiens) (UniProt O14965)
[19] = target: Mu-type opioid receptor (Homo sapiens) (UniProt P35372); details: Compound concentration 10.0 uM
[20] = target: Dual specificity mitogen-activated protein kinase kinase 7 (Homo sapiens) (UniProt O14733)
[21] = target: Mitogen-activated protein kinase kinase kinase kinase 3 (Homo sapiens) (UniProt Q8IVH8)
[22] = target: Receptor tyrosine-protein kinase erbB-3 (Homo sapiens) (UniProt P21860)
[23] = target: Beta-adrenergic receptor kinase 1 (Homo sapiens) (UniProt P25098)
[24] = target: Myotonin-protein kinase (Homo sapiens) (UniProt Q09013)
[25] = target: Serine/threonine-protein kinase/endoribonuclease IRE1 (Homo sapiens) (UniProt O75460)
[26] = target: Serine/threonine-protein kinase BRSK1 (Homo sapiens) (UniProt Q8TDC3)
[27] = target: Tyrosine-protein kinase Fyn (Homo sapiens) (UniProt P06241)
[28] = target: Serine/threonine-protein kinase PLK3 (Homo sapiens) (UniProt Q9H4B4)
[29] = target: ALK tyrosine kinase receptor (Homo sapiens) (UniProt Q9UM73)
Sequence of ALK tyrosine kinase receptor (Homo sapiens) (Q9UM73 19-1620 limits assumed): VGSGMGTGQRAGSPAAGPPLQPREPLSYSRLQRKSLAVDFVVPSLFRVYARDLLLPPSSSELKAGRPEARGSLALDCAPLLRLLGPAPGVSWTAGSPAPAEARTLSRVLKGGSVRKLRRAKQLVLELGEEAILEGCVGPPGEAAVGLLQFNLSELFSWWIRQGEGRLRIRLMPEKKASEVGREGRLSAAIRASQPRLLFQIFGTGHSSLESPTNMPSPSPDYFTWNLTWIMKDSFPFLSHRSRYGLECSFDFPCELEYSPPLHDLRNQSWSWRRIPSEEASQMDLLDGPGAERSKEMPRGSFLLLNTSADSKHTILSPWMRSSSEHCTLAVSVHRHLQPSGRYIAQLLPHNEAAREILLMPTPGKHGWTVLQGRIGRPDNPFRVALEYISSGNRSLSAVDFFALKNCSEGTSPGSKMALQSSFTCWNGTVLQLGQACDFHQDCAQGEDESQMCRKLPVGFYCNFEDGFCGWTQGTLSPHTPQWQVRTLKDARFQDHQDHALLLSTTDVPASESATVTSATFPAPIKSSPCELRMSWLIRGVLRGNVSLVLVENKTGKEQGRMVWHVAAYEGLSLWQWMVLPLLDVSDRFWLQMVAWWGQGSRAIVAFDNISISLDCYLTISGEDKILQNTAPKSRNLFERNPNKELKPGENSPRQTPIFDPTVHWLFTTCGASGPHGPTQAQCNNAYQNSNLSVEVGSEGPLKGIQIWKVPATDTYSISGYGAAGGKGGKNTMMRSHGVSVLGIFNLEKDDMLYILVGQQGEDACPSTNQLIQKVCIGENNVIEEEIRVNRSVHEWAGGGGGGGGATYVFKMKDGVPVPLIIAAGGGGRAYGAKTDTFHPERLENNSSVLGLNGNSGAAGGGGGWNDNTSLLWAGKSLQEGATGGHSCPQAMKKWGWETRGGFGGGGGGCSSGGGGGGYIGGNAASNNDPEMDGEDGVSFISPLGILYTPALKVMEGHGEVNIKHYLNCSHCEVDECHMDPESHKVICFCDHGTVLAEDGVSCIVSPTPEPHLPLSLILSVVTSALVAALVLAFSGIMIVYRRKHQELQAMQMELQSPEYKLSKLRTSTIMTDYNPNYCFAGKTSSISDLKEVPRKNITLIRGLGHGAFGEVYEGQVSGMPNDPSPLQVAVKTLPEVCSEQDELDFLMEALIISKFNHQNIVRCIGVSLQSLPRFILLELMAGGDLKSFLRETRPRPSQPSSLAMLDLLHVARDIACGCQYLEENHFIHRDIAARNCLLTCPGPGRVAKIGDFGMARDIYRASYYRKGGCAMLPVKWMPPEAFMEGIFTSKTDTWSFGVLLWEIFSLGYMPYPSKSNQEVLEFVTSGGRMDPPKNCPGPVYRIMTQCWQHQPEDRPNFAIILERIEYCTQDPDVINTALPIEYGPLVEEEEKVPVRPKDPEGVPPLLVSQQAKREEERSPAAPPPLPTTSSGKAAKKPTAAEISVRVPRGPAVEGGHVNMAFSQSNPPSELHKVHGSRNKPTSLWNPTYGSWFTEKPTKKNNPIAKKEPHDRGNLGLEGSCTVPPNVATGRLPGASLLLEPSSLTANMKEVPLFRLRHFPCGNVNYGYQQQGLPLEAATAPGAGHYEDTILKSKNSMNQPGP

[30] = target: Mitogen-activated protein kinase 8 (Homo sapiens) (UniProt P45983)
[31] = target: Alpha-1A adrenergic receptor (Homo sapiens) (UniProt P35348); details: Compound concentration 10.0 uM
[32] = target: Ephrin type-A receptor 4 (Homo sapiens) (UniProt P54764)
Sequence of Ephrin type-A receptor 4 (Homo sapiens) (P54764 whole entry): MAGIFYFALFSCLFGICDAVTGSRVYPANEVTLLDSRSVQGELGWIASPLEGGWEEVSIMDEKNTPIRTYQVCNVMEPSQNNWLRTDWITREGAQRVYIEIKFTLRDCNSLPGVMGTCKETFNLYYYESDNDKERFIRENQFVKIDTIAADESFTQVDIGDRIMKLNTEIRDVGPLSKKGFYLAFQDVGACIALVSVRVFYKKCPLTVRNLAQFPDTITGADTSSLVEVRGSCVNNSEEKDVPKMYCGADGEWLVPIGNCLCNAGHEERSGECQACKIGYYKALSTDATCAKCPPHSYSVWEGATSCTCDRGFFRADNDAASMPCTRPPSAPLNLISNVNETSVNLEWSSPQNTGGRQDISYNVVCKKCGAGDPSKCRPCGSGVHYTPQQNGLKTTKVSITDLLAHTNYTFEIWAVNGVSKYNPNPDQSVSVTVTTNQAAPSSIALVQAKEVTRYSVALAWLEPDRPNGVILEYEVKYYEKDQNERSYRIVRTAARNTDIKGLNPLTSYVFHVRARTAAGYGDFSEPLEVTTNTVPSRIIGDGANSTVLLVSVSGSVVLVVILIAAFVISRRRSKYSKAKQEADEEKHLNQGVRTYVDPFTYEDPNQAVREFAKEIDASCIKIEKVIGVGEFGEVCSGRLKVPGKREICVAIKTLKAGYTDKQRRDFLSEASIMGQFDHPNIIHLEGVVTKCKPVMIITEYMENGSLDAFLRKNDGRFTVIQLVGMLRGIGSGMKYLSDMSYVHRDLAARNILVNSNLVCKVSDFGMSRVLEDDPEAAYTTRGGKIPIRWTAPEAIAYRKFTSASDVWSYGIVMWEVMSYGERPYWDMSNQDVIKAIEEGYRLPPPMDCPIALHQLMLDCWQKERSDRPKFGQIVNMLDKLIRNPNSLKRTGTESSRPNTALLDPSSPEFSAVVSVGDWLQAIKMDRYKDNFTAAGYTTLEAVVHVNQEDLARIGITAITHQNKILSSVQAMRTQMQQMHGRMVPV

[33] = target: Serine/threonine-protein kinase 17B (Homo sapiens) (UniProt O94768)
Sequence of Serine/threonine-protein kinase 17B (Homo sapiens) (O94768 whole entry): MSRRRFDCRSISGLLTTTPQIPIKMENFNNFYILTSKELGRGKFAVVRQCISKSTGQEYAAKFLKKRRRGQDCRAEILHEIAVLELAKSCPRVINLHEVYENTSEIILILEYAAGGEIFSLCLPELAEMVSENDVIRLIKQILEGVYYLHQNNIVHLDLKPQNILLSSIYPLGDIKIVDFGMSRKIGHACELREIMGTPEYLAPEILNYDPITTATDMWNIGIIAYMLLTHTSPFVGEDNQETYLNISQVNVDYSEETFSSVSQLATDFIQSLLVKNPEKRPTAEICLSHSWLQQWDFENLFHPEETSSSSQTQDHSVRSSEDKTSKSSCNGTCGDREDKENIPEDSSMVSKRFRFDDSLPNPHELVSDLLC

[34] = target: Focal adhesion kinase 1 (Homo sapiens) (UniProt Q05397)
[35] = target: Receptor-type tyrosine-protein kinase FLT3 (Homo sapiens) (UniProt P36888)
[36] = target: Bone morphogenetic protein receptor type-1B (Homo sapiens) (UniProt O00238)
[37] = target: Ephrin type-B receptor 3 (Homo sapiens) (UniProt P54753)
[38] = tested on: Phosphatidylinositol 4,5-bisphosphate 3-kinase catalytic subunit alpha isoform (Homo sapiens), P42336 [E545A]
[39] = target: Protein kinase C theta type (Homo sapiens) (UniProt Q04759)
[40] = target: Histamine H3 receptor (Homo sapiens) (UniProt Q9Y5N1); details: Compound concentration 10.0 uM
[41] = target: Mitogen-activated protein kinase kinase kinase 6 (Homo sapiens) (UniProt O95382)
[42] = target: Citron Rho-interacting kinase (Homo sapiens) (UniProt O14578)
[43] = target: Serine/threonine-protein kinase MRCK gamma (Homo sapiens) (UniProt Q6DT37)
[44] = target: Proto-oncogene tyrosine-protein kinase ROS (Homo sapiens) (UniProt P08922)
[45] = target: Hormonally up-regulated neu tumor-associated kinase (Homo sapiens) (UniProt P57058)
[46] = tested on: Proto-oncogene tyrosine-protein kinase receptor Ret (Homo sapiens), P07949 [V804M]
[47] = Compound concentration 1000.0 nM
[48] = Compound concentration 100.0 nM

Sequence of 5-hydroxytryptamine receptor 2C (Homo sapiens) (P28335 whole entry): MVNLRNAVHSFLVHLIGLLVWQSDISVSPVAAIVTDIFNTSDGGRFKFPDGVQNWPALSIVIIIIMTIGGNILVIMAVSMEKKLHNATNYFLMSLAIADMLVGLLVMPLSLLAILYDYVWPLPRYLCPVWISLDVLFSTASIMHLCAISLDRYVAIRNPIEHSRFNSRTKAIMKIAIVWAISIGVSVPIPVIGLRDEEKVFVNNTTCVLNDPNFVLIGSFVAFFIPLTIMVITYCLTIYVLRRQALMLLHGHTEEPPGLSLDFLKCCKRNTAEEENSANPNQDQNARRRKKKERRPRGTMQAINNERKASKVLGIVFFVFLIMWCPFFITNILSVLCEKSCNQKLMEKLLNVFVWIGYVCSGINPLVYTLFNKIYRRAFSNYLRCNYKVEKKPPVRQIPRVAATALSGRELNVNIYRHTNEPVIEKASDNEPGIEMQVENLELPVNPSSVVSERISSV

Compound: CN(C)c1ncnc(-c2ccc3nc(Nc4cc(CN5CCN(C(=O)CC(F)(F)F)CC5)ccn4)[nH]c3c2)c1Cl [BAY-440]
- inhibition [1]: 0.02%
- residual activity [2, 47]: 100%
- residual activity [3, 47]: 40%
- residual activity [4, 47]: 100%
- residual activity [5, 47]: 100%
- residual activity [6, 47]: 100%
- inhibition [7]: 12.4%
- residual activity [8, 47]: 91%
- residual activity [9, 47]: 100%
- residual activity [10, 47]: 100%
- residual activity [11, 47]: 100%
- residual activity [12, 47]: 100%
- residual activity [13, 47]: 71%
- residual activity [14, 47]: 69%
- residual activity [15, 47]: 100%
- residual activity [16, 47]: 95%
- residual activity [17, 47]: 69%
- residual activity [18, 47]: 84%
- inhibition [19]: 14.1%
- residual activity [20, 47]: 100%
- residual activity [21, 47]: 74%
- residual activity [22, 47]: 63%
- residual activity [23, 47]: 57%
- residual activity [24, 47]: 91%
- residual activity [25, 47]: 62%
- residual activity [26, 47]: 100%
- residual activity [27, 47]: 68%
- residual activity [28, 47]: 100%
- residual activity [29, 47]: 75%
- residual activity [30, 47]: 63%
- inhibition [31]: 12.8%
- residual activity [32, 47]: 92%
- residual activity [33, 47]: 52%
- residual activity [34, 47]: 100%
- residual activity [35, 47]: 71%
- residual activity [36, 47]: 59%
- residual activity [37, 47]: 100%
- residual activity [38, 47]: 100%
- residual activity [39, 47]: 100%
- inhibition [40]: 4.68%
- residual activity [41, 47]: 87%
- residual activity [42, 47]: 100%
- residual activity [43, 47]: 100%
- residual activity [44, 47]: 100%
- residual activity [45, 47]: 80%
- residual activity [46, 47]: 93%

Compound: C[C@H](c1ccnc(Nc2nc3ccc(-c4cc(N(C)C)ncn4)cc3[nH]2)c1)N1CCN(C(=O)CC(F)(F)F)CC1 [BAY-985]
- inhibition [1]: 11.4%
- residual activity [2, 48]: 91%
- residual activity [3, 48]: 94%
- residual activity [4, 48]: 100%
- residual activity [5, 48]: 100%
- residual activity [6, 48]: 86%
- inhibition [7]: -4.38%
- residual activity [8, 48]: 94%
- residual activity [9, 48]: 100%
- residual activity [10, 48]: 100%
- residual activity [11, 48]: 97%
- residual activity [12, 48]: 100%
- residual activity [13, 48]: 100%
- residual activity [14, 48]: 100%
- residual activity [15, 48]: 91%
- residual activity [16, 48]: 100%
- residual activity [17, 48]: 100%
- residual activity [18, 48]: 100%
- inhibition [19]: 26%
- residual activity [20, 48]: 92%
- residual activity [21, 48]: 100%
- residual activity [22, 48]: 88%
- residual activity [23, 48]: 100%
- residual activity [24, 48]: 100%
- residual activity [25, 48]: 86%
- residual activity [26, 48]: 100%
- residual activity [27, 48]: 79%
- residual activity [28, 48]: 100%
- residual activity [29, 48]: 97%
- residual activity [30, 48]: 98%
- inhibition [31]: 11.9%
- residual activity [32, 48]: 98%
- residual activity [33, 48]: 100%
- residual activity [34, 48]: 100%
- residual activity [35, 48]: 95%
- residual activity [36, 48]: 86%
- residual activity [37, 48]: 93%
- residual activity [38, 48]: 100%
- residual activity [39, 48]: 100%
- inhibition [40]: -3.83%
- residual activity [41, 48]: 100%
- residual activity [42, 48]: 78%
- residual activity [43, 48]: 79%
- residual activity [44, 48]: 100%
- residual activity [45, 48]: 95%
- residual activity [46, 48]: 76%
